Like-named read-outs stand apart in the source and are kept apart here. One block for each compound: values may come before it.
What was measured:
[1] = tested on: Isolated Rat Bladder Strips; test: Inhibition of Contractions in Isolated Rat Bladder Strips (15 mM KCl-enhanced contractile activity); set-up: species or system Sprague-Dawley rats; conditions: for activity at 30 µM: read-out: Percent contraction at 30 μM (C); for inhibition at 30 µM: read-out: Percent inhibition at 30 μM (I)
Text: The smooth muscle relaxing activity of the compounds of this invention was established in accordance with standard pharmaceutically accepted test procedures with representative compounds as follows:
Sprague-Dawley rats (150-200 g) are rendered unconscious by CO2 asphyxiation and then euthanized by cervical dislocation. The bladder is removed into warm (37 deg.C.) physiological salt solution (PSS) of the following composition (mM): NaCl, 118.4; KCl, 4.7; CaCl2, 2.5; […]; NaHCO3, 24.9; KH2 PO4, 1.2; glucose, 11.1; EDTA, 0.023; gassed with […]; pH 7.4. The bladder is opened and then cut into strips 1-2 mm in width and 7-10 mm in length. The strips are subsequently suspended in a 10 mL tissue bath under an initial resting tension of 1.5 g. The strips are held in place by two surgical clips one of which is attached to a fixed hook while the other is attached to an isometric force transducer. […] The carbachol is then washed out and the tissue allowed to relax to its resting level of activity. Following a further 30 minute period of recovery an additional 15 mM KCl are introduced into the tissue bath. This increase in KCl concentration results in a large increase in the amplitude of spontaneous contractions (and initiation of contractions in previously quiescent strips) superimposed upon a small increase in basal tone. Following stabilization of this enhanced level of contractile activity, incremental increases in the concentration of test compound or vehicle are introduced into the tissue bath. Contractile activity is measured for each compound or vehicle concentration during the last minute of a 30 minute challenge.
The isometric force developed by the bladder strips is measured using a […]. The (IC50 concentration) is calculated from this concentration-response curve.

[2] = tested on: hypertrophied bladder (detrussor) smooth muscle in conscious female rats; test: Inhibition of Spontaneous Contractions In Vivo in the hypertrophied rat bladder model (cystometry, conscious rats); set-up: species or system Female Sprague-Dawley rats
Method: In addition, we tested the ability of compounds to inhibit the hyperactivity of hypertrophied bladder (detrussor) smooth muscle in conscious female rats with hypertrophied bladders and thereby alleviate urinary incontinence in rats according to the following protocol described by Malmgren et al., J. Urol. 142:1134, 1989:
Female Sprague-Dawley rats, ranging in weight from 190-210 g are used. Up to 25 animals are prepared each time. After developemnt of bladder hypertrophy 4-8 animals are used per test.
Compounds are dissolved in PEG-200 and administered by gastric gavage or intraveneously in a volume of 5 ml/kg. For primary screening all drugs are administered at the arbitrary dose of 10 mg/kg p.o. to groups of 4 rats.
The animals are anesthetized with halothane. Through a midline incision the bladder and urethra are exposed and a ligature of 4-0 silk is tied around the proximal urethra in the presence of a stainless steel rod (1 mm diameter) to produce a partial occlusion. The rod is then removed. The abdominal region is closed using surgical staples and each rat receives 150,000 units of bicillin C-R. The animals are allowed six weeks to develop sufficient bladder hypertrophy. After six weeks, the ligature is removed under halothane anesthesia and a catheter (PE 60) with a cuff is placed in the dome of the bladder and secured with a purse string suture. The catheter is tunneled under the skin and exteriorized through an opening in the back of the neck. The abdominal incision is sutured and the free end of the catheter sealed. In order to prevent infections the rats receive an injection of bicillin C-R (150000 units/rat). Two days later the animals are used in cystometrical evaluations, The animals are placed in the metabolic cages and the catheter is attached (using a "T" connector) to a Statham pressure transducer (Model P23Db) and to a Harvard infusion pump. A plastic beaker attached to a force displacement transducer (Grass FTO3) is placed under the rat's cage to collect and record urine volume. Animals are allowed 15-30 minutes to rest before the saline infusion (20 ml/hr for 20 minutes) is started for the first cystometry period. Two hours after the first cystometry period, the rats are dosed with the vehicle or the test compound and one hour later a second cystometry is performed.
The following urodynamic variables are recorded:
The mean value of each variable is calculated before and after compound administration. For each compound the changes in the variables measured are compared to the values obtained before treatment and expressed as percent inhibition. The data are also subjected to 2-way analysis of variance to determine significant (p<0.05) changes in the variable measured. The most characteristic finding in this rat model is spontaneous bladder contractions which develop during filling.

[3] = 0.5 h, isolated rat bladder strips, 15 mM KCl, 30 minute challenge, read-out: IC50, inhibition of contractions in isolated rat bladder strips
[4] = 0.5 h, isolated rat bladder strips

SMILES: CC(Nc1c(NCc2ccc(Cl)cc2Cl)c(=O)c1=O)C(C)(C)C (stereo not drawn) [Example 2, 3-(2,4-Dichlorobenzylamino)-4-(1,2,2-trimethylproylamino)-cyclobut-3-ene-1,2-dione]
IC50 [1, 3]: 2 ± 1 µM

SMILES: Cc1cc(Cl)cc(Cl)c1CNc1c(N[C@H](C)C(C)(C)C)c(=O)c1=O [Example 4, (R)-3-(2,4-dichloro-6-methyl-benzylamino)-4-(1,2,2-trimethyl-propylamino)-cyclobut-3-ene-1,2-dione]
IC50 [1, 3]: 9.8 ± 5.1 µM

SMILES: CCC(C)(C)Nc1c(NCc2ccc(Cl)cc2Cl)c(=O)c1=O [Example 6, 3-(2,4-Dichlorobenzylamino)-4-(1,1-dimethylpropylamino)-cyclobut-3-ene-1,2-dione]
IC50 [1, 3]: 0.11 ± 0.002 µM | IC50 ([1]; Rattus norvegicus, prior lot of this compound, mp. 195-196° C., n = 4, read-out: IC50, prior lot): 0.21 ± 0.04 µM | % Red (F): percent reduction in the total number of spontaneous contractions ([2]; 1 mg/kg p.o., prior lot, mp. 195-196° C.): -40 ± 13% | % Red (F): percent reduction in the total number of spontaneous contractions ([2]; 3 mg/kg p.o., prior lot, mp. 195-196° C.): -58 ± 9% | % Red (F): percent reduction in the total number of spontaneous contractions ([2]; 10 mg/kg p.o., prior lot, mp. 195-196° C.): -68 ± 10%

SMILES: CCC(C)(C)Nc1c(N(Cc2ccc(Cl)cc2Cl)C(C)=O)c(=O)c1=O [Example 7, N-(2,4-dichloro-benzyl)-N-[2-(1,1-dimethyl-propylamino)-3,4-dioxo-cyclobut-1-enyl]-acetamide]
IC50 [1, 3]: 15.8 ± 0.05 µM

SMILES: CCCC(=O)N(Cc1ccc(Cl)cc1Cl)c1c(NC(C)(C)CC)c(=O)c1=O [Example 8, N-(2,4-dichloro-benzyl)-N-[2-(1,1-dimethyl-propylamino)-3,4-dioxo-cyclobut-1-enyl]-butyramide]
activity at 30 µM [1, 4]: 82.8 ± 26% | inhibition at 30 µM ([1]; isolated rat bladder strips): 10.2%

SMILES: CCC(C)(C)Nc1c(NCc2c(C)cc(Cl)cc2Cl)c(=O)c1=O [Example 9, 3-(2,4-Dichloro-6-methyl-benzylamino)-4-(1,1-dimethyl-propylamino)-cyclobut-3-ene-1 2-dione]
IC50 [1, 3]: 0.2 ± 0.06 µM | % Red (F): percent reduction in the total number of spontaneous contractions ([2]; 1 mg/kg p.o.): -63 ± 13% | % Red (F): percent reduction in the total number of spontaneous contractions ([2]; 3 mg/kg p.o.): -82 ± 5%

SMILES: CC(C)(C)Nc1c(NCc2ccc(Cl)cc2Cl)c(=O)c1=O [Example 11, 3-(t-Butylamino)-4-(2,4-dichlorobenzylamino) cyclobut-3-ene-1,2-dione]
IC50 [1, 3]: 1.3 ± 0.6 µM

SMILES: CCC(CC)Nc1c(NCc2ccc(Cl)c(Cl)c2)c(=O)c1=O [Example 14, 3-(3,4-Dichloro-benzylamino)-4-(1-ethyl-propylamino)-cyclobut-3-ene-1,2-dione]
inhibition at 30 µM ([1]; isolated rat bladder strips): 22 ± 5.9%

SMILES: CCCC(=O)N(Cc1c(C)cc(Cl)cc1Cl)c1c(NC(C)(C)CC)c(=O)c1=O [Example 17, N-(2,4-Dichloro-6-methyl-benzyl)-N-[2-(1,1-dimethyl-2proplylamino)-3,4-dioxo-cyclobut-1-envl]-butyramide]
activity at 30 µM [1, 4]: 245 ± 15% | % Red (F): percent reduction in the total number of spontaneous contractions ([2]; 10 mg/kg p.o.): -87 ± 2%

SMILES: CCC(C)(C)Nc1c(N(Cc2c(C)cc(Cl)cc2Cl)C(C)=O)c(=O)c1=O [Example 18, N-(2,4-Dichloro-6-methyl-benzyl)-N-[2-(1,1-dimethyl-propylamino)-3,4-dioxo-cyclobut-1-enyl]-acetamide]
inhibition at 30 µM ([1]; isolated rat bladder strips): 26 ± 13.8%

SMILES: CCC(=O)N(c1c(NCc2c(C)cc(Cl)cc2Cl)c(=O)c1=O)C(C)(C)C [Example 19, N-(tert-butyl)-N-[2-(2,4-Dichloro-6-methyl-benzylamino)-3,4-dioxo-cylobut-1-enyl]-propionamide]
activity at 30 µM [1, 4]: 92.5 ± 44.2%

Further lines, with some results ahead:

IC50 [1, 3]: 0.22 ± 0.08 µM
SMILES: Cc1cc(Cl)cc(Cl)c1CNc1c(NC(C)(C)C)c(=O)c1=O [Example 12, 3-tert-butylamino-4-(2,4-dichloro-6-methyl-benzylamino)-cyclobut-3-ene-1,2-dione]
% Red (F): percent reduction in the total number of spontaneous contractions ([2]; 3 mg/kg p.o.): -53 ± 18%

IC50 [1, 3]: 2 ± 0.8 µM
SMILES: CCC(CC)Nc1c(NCc2ccc(Cl)cc2Cl)c(=O)c1=O [Example 15, 3-(2,4-dichloro-benzylamino)-4-(1-ethyl-propylamino)-cyclobut-3-ene-1,2-dione]

IC50 [1, 3]: 9.35 ± 0.46 µM
SMILES: Cc1cc(Cl)cc(Cl)c1CNc1c(NCC(F)(F)C(F)(F)F)c(=O)c1=O [Example 16]
inhibition at 30 µM ([1]; isolated rat bladder strips): 36 ± 3.2%

IC50 [1, 3]: 2.53 ± 0.19 µM
SMILES: Cc1cc(Cl)cc(Cl)c1CNc1c(NC(C)C(C)(C)F)c(=O)c1=O (stereo not drawn) [Example 20, 3-(2,4-dichloro-6-methyl-benzylamino)-4-(1,2-dimethyl-2-fluoro-propylamino)-cyclobut-3-ene-1,2-dione]

IC50 [1, 3]: 24 ± 9.3 µM
SMILES: CC(C)(CO)Nc1c(NCc2ccc(Cl)cc2Cl)c(=O)c1=O [Example 22, 3-(2,4-Dichlorobenzylamino)-4-(2-hvdroxy-1,1-dimethylethylamino)-cyclobut-3-ene-1,2-dione]

IC50 [1, 3]: 0.34 ± 0.22 µM
SMILES: C[C@@H](Nc1c(NCc2ccc(Cl)cc2Cl)c(=O)c1=O)C(C)(C)C [Example 23, (R)-3-(2,4-dichlorobenzylamino)-4-(1,2,2-trimethylpropylamino)-cyclobut-3-ene-1,2-dione]

IC50 [1, 3]: 1.48 ± 0.57 µM
SMILES: CC(C)(C)Nc1c(NCc2ccc(Cl)c(Cl)c2)c(=O)c1=O [Example 24, 3-tert-Butylamino-4-(3,4-dichlorobenzylamino)-cyclobut-3-ene-1,2-dione]
activity at 30 µM [1, 4]: 30% | inhibition at 30 µM ([1]; isolated rat bladder strips): 32.5 ± 3.1%

IC50 [1, 3]: 8.9 ± 4 µM
SMILES: CCC(C)(C)Nc1c(NCc2ccc(Cl)c(Cl)c2)c(=O)c1=O [Example 25]
activity at 30 µM [1, 4]: 57.9 ± 4.2%

IC50 [1, 3]: 4.5 ± 4.2 µM
SMILES: CCC(C)(C)Nc1c(N(Cc2c(C)cc(Cl)cc2Cl)C(=O)OC(C)(C)C)c(=O)c1=O [Example 26, (2,4-Dichloro-6-methyl-benzyl)-[2-(1,1-dimethyl-propylamino)-3,4-dioxo-cyelobut-1-enyl]-carbamic acid tert-butyl ester]

From patent publication US5763474A, “Substituted N-arylmethylamino derivatives of cyclobutene-3,4-diones” (American Home Products Corporation, priority 1997, dated 1998)
